Source: ChEMBL document CHEMBL1671643, “Relative strengths of the class 1 integron promoter hybrid 2 and the combinations of strong and hybrid 1 with an active p2 promoter” (2009)
In brackets after ≈: the same amount, converted by molar mass.

Tests used:
Type in all cases: functional
Escherichia coli [1] = test: Antimicrobial activity against Escherichia coli MC4100 harboring promoter hybrid 1 and active promoter P2 in beta-lactamase GES-1 by Etest
Escherichia coli [2] = test: Antimicrobial activity against Escherichia coli MC4100 harboring weak promoter and active promoter P2 in beta-lactamase GES-1 by Etest
Escherichia coli [3] = test: Antimicrobial activity against Escherichia coli MC4100 expressing promoterless beta-lactamase GES-1 by Etest
Escherichia coli [4] = test: Antimicrobial activity against Escherichia coli MC4100 harboring promoter hybrid 1 in beta-lactamase GES-1 by Etest
Escherichia coli [5] = test: Antimicrobial activity against Escherichia coli MC4100 harboring strong promoter in beta-lactamase GES-1 by Etest
Escherichia coli [6] = test: Antimicrobial activity against Escherichia coli MC4100 harboring a weak promoter in beta-lactamase GES-1 by Etest
Escherichia coli [7] = test: Antimicrobial activity against Escherichia coli MC4100 harboring promoter hybrid 2 in beta-lactamase GES-1 by Etest
Escherichia coli [8] = test: Antimicrobial activity against Escherichia coli MC4100 harboring strong promoter and active promoter P2 in beta-lactamase GES-1 by Etest

**Q.** What does the source list for `CC1(C)S[C@@H]2[C@H](NC(=O)[C@H](N)c3ccc(O)cc3)C(=O)N2[C@H]1C(=O)O` [AMOXICILLIN]?
**A.** MIC (Escherichia coli [1]): > 256 µg/mL; MIC (Escherichia coli [2]): > 256 µg/mL; MIC (Escherichia coli [3]): 4 µg/mL (≈ 10.9 µM); MIC (Escherichia coli [4]): > 256 µg/mL; MIC (Escherichia coli [5]): > 256 µg/mL; MIC (Escherichia coli [6]): > 256 µg/mL; MIC (Escherichia coli [7]): > 256 µg/mL; MIC (Escherichia coli [8]): > 256 µg/mL

**Q.** What does the source list for `C[C@H]1[C@H](NC(=O)/C(=N\OC(C)(C)C(=O)O)c2csc(N)n2)C(=O)N1S(=O)(=O)O` [AZTREONAM]?
**A.** MIC (Escherichia coli [1]): 0.125 µg/mL (≈ 0.287 µM); MIC (Escherichia coli [2]): 0.094 µg/mL (≈ 0.216 µM); MIC (Escherichia coli [4]): 0.047 µg/mL (≈ 0.108 µM); MIC (Escherichia coli [5]): 0.19 µg/mL (≈ 0.436 µM); MIC (Escherichia coli [6]): 0.047 µg/mL (≈ 0.108 µM); MIC (Escherichia coli [7]): 0.094 µg/mL (≈ 0.216 µM); MIC (Escherichia coli [8]): 0.25 µg/mL (≈ 0.574 µM)

**Q.** What does the source list for `N[C@@H](C(=O)N[C@@H]1C(=O)N2C(C(=O)O)=C(Cl)CS[C@H]12)c1ccccc1` [CEFACLOR ANHYDROUS]?
**A.** MIC (Escherichia coli [1]): 24 µg/mL (≈ 65.3 µM); MIC (Escherichia coli [2]): 24 µg/mL (≈ 65.3 µM); MIC (Escherichia coli [3]): 1.5 µg/mL (≈ 4.08 µM); MIC (Escherichia coli [4]): 8 µg/mL (≈ 21.8 µM); MIC (Escherichia coli [5]): 256 µg/mL (≈ 696 µM); MIC (Escherichia coli [6]): 6 µg/mL (≈ 16.3 µM); MIC (Escherichia coli [7]): 24 µg/mL (≈ 65.3 µM); MIC (Escherichia coli [8]): 256 µg/mL (≈ 696 µM)

**Q.** How did the MIC (Escherichia coli [1]) turn out when `CO/N=C(\C(=O)N[C@@H]1C(=O)N2C(C(=O)[O-])=C(C[N+]3(C)CCCC3)CS[C@H]12)c1csc(N)n1` [CEFEPIME] was run?
**A.** 0.125 µg/mL (≈ 0.26 µM)

**Q.** What about the MIC (Escherichia coli [2]) of the same compound?
**A.** 0.094 µg/mL (≈ 0.196 µM)

**Q.** And the MIC (Escherichia coli [3])?
**A.** 0.032 µg/mL (≈ 0.0666 µM)

**Q.** And the MIC (Escherichia coli [4])?
**A.** 0.064 µg/mL (≈ 0.133 µM)

**Q.** And the MIC (Escherichia coli [5])?
**A.** 0.19 µg/mL (≈ 0.395 µM)

**Q.** And the MIC (Escherichia coli [6])?
**A.** 0.032 µg/mL (≈ 0.0666 µM)

**Q.** And the MIC (Escherichia coli [7])?
**A.** 0.125 µg/mL (≈ 0.26 µM)

**Q.** And the MIC (Escherichia coli [8])?
**A.** 0.19 µg/mL (≈ 0.395 µM)

**Q.** For `CC(C)(O/N=C(\C(=O)N[C@@H]1C(=O)N2C(C(=O)[O-])=C(C[n+]3ccccc3)CS[C@H]12)c1csc(N)n1)C(=O)O` [CEFTAZIDIME], which MIC (Escherichia coli [1]) is on record?
**A.** 6 µg/mL (≈ 11 µM)

**Q.** And the MIC (Escherichia coli [2])?
**A.** 4 µg/mL (≈ 7.32 µM)

**Q.** What about the MIC (Escherichia coli [3]) of the same compound?
**A.** 0.064 µg/mL (≈ 0.117 µM)

**Q.** And the MIC (Escherichia coli [4])?
**A.** 1.5 µg/mL (≈ 2.74 µM)

**Q.** And the MIC (Escherichia coli [5])?
**A.** 12 µg/mL (≈ 22 µM)

**Q.** What about the MIC (Escherichia coli [6]) of the same compound?
**A.** 0.75 µg/mL (≈ 1.37 µM)

**Q.** And the MIC (Escherichia coli [7])?
**A.** 4 µg/mL (≈ 7.32 µM)

**Q.** What about the MIC (Escherichia coli [8]) of the same compound?
**A.** 16 µg/mL (≈ 29.3 µM)

**Q.** What does the source list for `CO/N=C(\C(=O)N[C@@H]1C(=O)N2C(C(=O)O)=C(COC(N)=O)CS[C@H]12)c1ccco1` [CEFUROXIME]?
**A.** MIC (Escherichia coli [1]): 256 µg/mL (≈ 603 µM); MIC (Escherichia coli [2]): 96 µg/mL (≈ 226 µM); MIC (Escherichia coli [3]): 2 µg/mL (≈ 4.71 µM); MIC (Escherichia coli [4]): 32 µg/mL (≈ 75.4 µM); MIC (Escherichia coli [5]): > 256 µg/mL; MIC (Escherichia coli [6]): 8 µg/mL (≈ 18.9 µM); MIC (Escherichia coli [7]): 128 µg/mL (≈ 302 µM); MIC (Escherichia coli [8]): > 256 µg/mL

**Q.** Which MIC (Escherichia coli [1]) does the source give for `CCN1CCN(C(=O)N[C@@H](C(=O)N[C@@H]2C(=O)N3[C@@H]2SC(C)(C)[C@@H]3C(=O)O)c2ccccc2)C(=O)C1=O` [PIPERACILLIN] here?
**A.** 16 µg/mL (≈ 30.9 µM)

**Q.** And the MIC (Escherichia coli [2])?
**A.** 12 µg/mL (≈ 23.2 µM)

**Q.** And the MIC (Escherichia coli [3])?
**A.** 1 µg/mL (≈ 1.93 µM)

**Q.** What about the MIC (Escherichia coli [4]) of the same compound?
**A.** 4 µg/mL (≈ 7.73 µM)

**Q.** And the MIC (Escherichia coli [5])?
**A.** 24 µg/mL (≈ 46.4 µM)

**Q.** And the MIC (Escherichia coli [6])?
**A.** 2 µg/mL (≈ 3.86 µM)

**Q.** And the MIC (Escherichia coli [7])?
**A.** 12 µg/mL (≈ 23.2 µM)

**Q.** What about the MIC (Escherichia coli [8]) of the same compound?
**A.** 24 µg/mL (≈ 46.4 µM)
